In patent publication US5591714A, “Derivatives of A82846” (priority 1994, dated 1997):
≈ marks a conversion by molar mass, not a printed value. Where two headings read alike, the source gives them in different places.

Tests used:
[1] = tested on: vancomycin-resistant (Vanco^r) E. faecium and E. faecalis; test: Susceptibility of vancomycin-resistant enterococci, agar-dilution MIC; type: cell-based; details: for Geometric Mean MIC, Vanco^r Strains: n = 25 strains, end points read after 24-hour incubation
Description: (§1) End points were read after 24-hour incubation. The ratio was calculated by dividing the mean MIC of the compound against the vancomycin-resistant strains by the mean MIC of the compound against the vancomycin-susceptible strains.

[2] = tested on: vancomycin-susceptible (Vanco^s) E. faecium and E. faecalis; test: Susceptibility of vancomycin-susceptible enterococci, agar-dilution MIC; type: cell-based; details: n = 34 strains; end points read after 24-hour incubation
Description: as §1

[3] = tested on: six vancomycin-susceptible strains of staphylococci and enterococci; test: Effect of human serum on the MIC, serial dilution assay; type: cell-based; details: for MIC determined in absence of added serum: absence (-) of human serum; for MIC determined in presence of human serum: broth supplemented with human serum to 40%
From the text: Another important property of the formula I compounds is the low binding of the compounds to serum proteins when compared with other glycopeptide antibiotics. […] The ratio of the MIC measured in the presence of added serum to the MIC measured in the absence of added serum ("ratio") is an indication of the degree of serum binding. […] A ratio that is greater than one, for example about ten, indicates the compound has a high degree of serum binding.

Escherichia coli EC14 = test: MIC, standard agar-dilution assay; type: cell-based
Description: (§2) The formula I compounds have in vitro and in vivo activity against Gram-positive pathogenic bacteria. The MIC's were determined using a standard agar-dilution assays.

Escherichia coli N10 = test: MIC, standard agar-dilution assay; type: cell-based
Description: as §2

Escherichia coli TEM = test: MIC, standard agar-dilution assay; type: cell-based
Description: as §2

[4] = tested on: Haemophilus influenzae 76; test: MIC, standard agar-dilution assay; type: cell-based
Description: as §2

[5] = tested on: Haemophilus influenzae C.L.; test: MIC, standard agar-dilution assay; type: cell-based
Description: as §2

[6] = tested on: Klebsiella pneumoniae KAE; test: MIC, standard agar-dilution assay; type: cell-based
Description: as §2

[7] = tested on: Klebsiella pneumoniae X26; test: MIC, standard agar-dilution assay; type: cell-based
Description: as §2

[8] = tested on: Klebsiella pneumoniae X68; test: MIC, standard agar-dilution assay; type: cell-based
Description: as §2

[9] = tested on: Staphylococcus aureus NRRL X1.1; test: MIC, standard agar-dilution assay; type: cell-based
Description: as §2

[10] = tested on: Staphylococcus aureus V41; test: MIC, standard agar-dilution assay; type: cell-based
Description: as §2

[11] = tested on: Staphylococcus aureus X400; test: MIC, standard agar-dilution assay; type: cell-based
Description: as §2

[12] = tested on: Staphylococcus epidermidis 222; test: MIC, standard agar-dilution assay; type: cell-based
Description: as §2

[13] = tested on: Staphylococcus epidermidis EPI270; test: MIC, standard agar-dilution assay; type: cell-based
Description: as §2

[14] = tested on: Streptococcus pyogenes C203; test: MIC, standard agar-dilution assay; type: cell-based
Description: as §2

[15] = tested on: Streptococcus pneumoniae Park 1; type: cell-based
Description: as §2

Enterococcus faecium X66 = test: MIC, standard agar-dilution assay; type: cell-based
Description: as §2
^b Formerly Streptococcus faecium X66

[16] = tested on: Enterococcus faecalis 2041; test: MIC, standard agar-dilution assay; type: cell-based
Description: as §2
^c Formerly Streptococcus faecalis 2041

Staphylococcus aureus = test: In vivo activity, experimentally infected mice (ED50); details: Staphylococcus aureus infection; doses administered subcutaneously to mice 1 and 4 hours postinfection
Streptococcus pyogenes = test: as above; details: Streptococcus pyogenes infection; doses administered subcutaneously to mice 1 and 4 hours postinfection
Streptococcus pneumoniae = test: as above; details: Streptococcus pneumoniae infection; doses administered subcutaneously to mice 1 and 4 hours postinfection
[17] = tested on: Staphylococcus aureus S13E; type: cell-based
Description: as §2

[18] = indication of the degree of serum binding

Row | SMILES | Ratio (mean MIC vancomycin-resistant strains / mean MIC vancomycin-susceptible strains) [1] | Geometric Mean MIC, Vanco^r Strains [1] [µg/mL] | Geometric Mean MIC, Vanco^s Strains [2] [µg/mL] | MIC (Escherichia coli EC14) [µg/mL] | MIC (Escherichia coli N10) [µg/mL] | MIC (Escherichia coli TEM) [µg/mL] | MIC [4] [µg/mL] | MIC [5] [µg/mL] | MIC [6] [µg/mL] | MIC [7] [µg/mL] | MIC [8] [µg/mL] | MIC [9] | MIC [10] | MIC [11] | MIC [12] | MIC [13] | MIC [14] | MIC [15] | MIC (Enterococcus faecium X66) | MIC [16] | other results
1 | CN[C@H](CC(C)C)C(=O)N[C@H]1C(=O)N[C@@H](CC(N)=O)C(=O)N[C@H]2C(=O)N[C@H]3C(=O)N[C@H](C(=O)N[C@H](C(=O)O)c4cc(O)cc(O)c4-c4cc3ccc4O)[C@H](O[C@H]3C[C@](C)(N)[C@@H](O)[C@H](C)O3)c3ccc(c(Cl)c3)Oc3cc2cc(c3O[C@@H]2O[C@H](CO)[C@@H](O)[C@H](O)[C@H]2O[C@H]2C[C@](C)(N)[C@@H](O)[C@H](C)O2)Oc2ccc(cc2Cl)[C@H]1O [Compound A82846B, A82846B, reference compound] | 18.4 | 9.4 | 0.51 |  |  |  |  |  |  |  |  |  |  |  |  |  |  |  |  |  | ratio of the MIC in the presence of added serum to the MIC in the absence of added serum [3]: 1.5; MIC determined in absence of added serum [3]: 0.5; MIC determined in presence of human serum [3]: 0.75
2 | CNC(CC(C)C)C(=O)NC1C(=O)NC(CC(N)=O)C(=O)NC2C(=O)NC3C(=O)NC(C(=O)NC(C(=O)O)c4cc(O)cc(O)c4-c4cc3ccc4O)C(OC3CC(C)(N)C(O)C(C)O3)c3ccc(c(Cl)c3)Oc3cc2cc(c3OC2OC(CO)C(O)C(O)C2OC2CC(C)(NCc3ccc(Cl)cc3)C(O)C(C)O2)Oc2ccc(cc2Cl)C1O (centres unmarked) [Compound 60] | 5.5 | 3.6 | 0.65 | > 128 | > 128 | > 128 | > 128 | > 128 | > 128 | > 128 | > 128 | .125 µg/mL (≈ 0.0728 µM) | .25 µg/mL (≈ 0.146 µM) | .5 µg/mL (≈ 0.291 µM) | .25 µg/mL (≈ 0.146 µM) | .5 µg/mL (≈ 0.291 µM) | .06 µg/mL (≈ 0.0349 µM) | .06 µg/mL (≈ 0.0349 µM) | .25 µg/mL (≈ 0.146 µM) | .25 µg/mL (≈ 0.146 µM) | ED50 (Staphylococcus aureus): 0.25 mg/kg/2; ED50 (Streptococcus pyogenes): 0.06 mg/kg/2; ED50 (Streptococcus pneumoniae): 0.08 mg/kg/2; MIC determined in absence of added serum [3]: 0.76; ratio of the MIC in the presence of added serum to the MIC in the absence of added serum [3, 18]: 2.0; MIC determined in presence of human serum [3]: 1.5
3 | CCCCCCCCCCN[C@@]1(C)C[C@H](O[C@H]2[C@H](Oc3c4cc5cc3Oc3ccc(cc3Cl)[C@@H](O[C@H]3C[C@](C)(N)[C@@H](O)[C@H](C)O3)[C@@H]3NC(=O)[C@H](NC(=O)[C@@H]5NC(=O)[C@H](CC(N)=O)NC(=O)[C@H](NC(=O)[C@@H](CC(C)C)NC)[C@H](O)c5ccc(c(Cl)c5)O4)c4ccc(O)c(c4)-c4c(O)cc(O)cc4[C@@H](C(=O)O)NC3=O)O[C@H](CO)[C@@H](O)[C@@H]2O)O[C@@H](C)[C@@H]1O [Compound 42] | 2.7 | 2.5 | 0.92 | > 128 | > 128 | > 128 | > 128 | > 128 | > 128 | > 128 | > 128 | .5 µg/mL (≈ 0.289 µM) | .5 µg/mL (≈ 0.289 µM) | .5 µg/mL (≈ 0.289 µM) | .5 µg/mL (≈ 0.289 µM) | 1 µg/mL (≈ 0.577 µM) | .25 µg/mL (≈ 0.144 µM) | .25 µg/mL (≈ 0.144 µM) | .06 µg/mL (≈ 0.0346 µM) | .5 µg/mL (≈ 0.289 µM) | MIC [17]: 1 µg/mL (≈ 0.577 µM); ED50 (Staphylococcus aureus): 0.67 mg/kg/2; ED50 (Streptococcus pyogenes): 0.09 mg/kg/2; ED50 (Streptococcus pneumoniae): 0.09 mg/kg/2; MIC determined in absence of added serum [3]: 0.87; ratio of the MIC in the presence of added serum to the MIC in the absence of added serum [3, 18]: 0.76; MIC determined in presence of human serum [3]: 0.66
4 | CNC(CC(C)C)C(=O)NC1C(=O)NC(CC(N)=O)C(=O)NC2C(=O)NC3C(=O)NC(C(=O)NC(C(=O)O)c4cc(O)cc(O)c4-c4cc3ccc4O)C(OC3CC(C)(N)C(O)C(C)O3)c3ccc(c(Cl)c3)Oc3cc2cc(c3OC2OC(CO)C(O)C(O)C2OC2CC(C)(NCC(c3ccccc3)c3ccccc3)C(O)C(C)O2)Oc2ccc(cc2Cl)C1O (centres unmarked) [Compound 45] | 5.5 | 9.4 | 1.7 | > 128 | > 128 | > 128 | > 128 | > 128 | > 128 | > 128 | > 128 | .25 µg/mL (≈ 0.141 µM) | .5 µg/mL (≈ 0.282 µM) | .5 µg/mL (≈ 0.282 µM) | .5 µg/mL (≈ 0.282 µM) | 1 µg/mL (≈ 0.564 µM) | .125 µg/mL (≈ 0.0705 µM) | .25 µg/mL (≈ 0.141 µM) | .5 µg/mL (≈ 0.282 µM) | .5 µg/mL (≈ 0.282 µM) | MIC [17]: .5 µg/mL (≈ 0.282 µM); ED50 (Staphylococcus aureus): 0.77 mg/kg/2; ED50 (Streptococcus pyogenes): 0.1 mg/kg/2; ED50 (Streptococcus pneumoniae): 0.1 mg/kg/2
5 | CCCCCCCCN[C@@]1(C)C[C@H](O[C@H]2[C@H](Oc3c4cc5cc3Oc3ccc(cc3Cl)[C@@H](O)[C@@H](NC(=O)[C@@H](CC(C)C)NC)C(=O)N[C@@H](CC(N)=O)C(=O)N[C@H]5C(=O)N[C@H]3C(=O)N[C@H](C(=O)N[C@H](C(=O)O)c5cc(O)cc(O)c5-c5cc3ccc5O)[C@H](O[C@H]3C[C@](C)(N)[C@@H](O)[C@H](C)O3)c3ccc(cc3)O4)O[C@H](CO)[C@@H](O)[C@@H]2O)O[C@@H](C)[C@@H]1O [Compound 1] | 4.9 | 9.7 | 2.2 | > 128 | > 128 | > 128 | > 128 | > 128 | > 128 | > 128 | > 128 | 1 µg/mL (≈ 0.599 µM) | 1 µg/mL (≈ 0.599 µM) | 1 µg/mL (≈ 0.599 µM) | 1 µg/mL (≈ 0.599 µM) | 1 µg/mL (≈ 0.599 µM) | .25 µg/mL (≈ 0.15 µM) | .5 µg/mL (≈ 0.299 µM) | 1 µg/mL (≈ 0.599 µM) | 1 µg/mL (≈ 0.599 µM) | MIC [17]: .5 µg/mL (≈ 0.299 µM); ED50 (Staphylococcus aureus): 3.35 mg/kg/2; ED50 (Streptococcus pyogenes): 0.43 mg/kg/2; ED50 (Streptococcus pneumoniae): 0.43 mg/kg/2
